According to patent US9856348B2, “Multifunctional degradable nanoparticles with control over size and functionalities” (Vanderbilt University, priority 2007, dated 2018):

How the values were obtained:
[1] = system: mice with microbead-elevated intraocular pressure
Protocol: Two groups of mice (N=3 each) were compared to determine the effect of a single intravitreal injection of brimonidine-laced nanoparticle relative to a single topical drop (eyedrop) of clinical-grade brimonidine. For each mouse, intraocular pressure (IOP) was acutely elevated by an injection (1 μl) of polystyrene microbeads into the anterior chamber of the eye. This induces a 35-40% elevation in IOP that persists for 3-4 weeks. […] IOP was tracked using TonoPen XL measurements until any lowering effect was dissipated.

[2] = system: human microvascular endothelial cells (HMEC); assay: Internalization of FITC-dendrimer conjugates, temperature effect and controls; type: cell-based; settings: 10 uM, 60 min, 37° C.
Protocol: Internalization of FD-1 and FD-2 in mammalian cells was assessed using two different cell lines and a previously described method [Futaki, S.; Nakase, I.; Suzuki, T.; Youjun, Y.; Sugiura, Y. Biochemistry 2002, 41, 7925.] with NIH-3T3 fibroblasts and HMEC (human microvascular endothelial cells) and a Zeiss LSM 510 confocal microscope. […] [Futaki, S.; Nakase, I.; Suzuki, T.; Youjun, Y.; Sugiura, Y. Biochemistry 2002, 41, 7925.; Vivès, E.; Brodin, P.; Lebleu, B. J. Biol. Chem. 1997, 272, 16010.] Furthermore, the extent of internalization increased in an incubation time-dependent manner, and it was observed that after just 10 min, the fluorescence intensity of cells treated with FD-2 was near saturation. […] L. Org. Lett. 2005, 7, 4815.] but also regulate the subcellular localization of the molecule and its putative cargo. […] Therefore, the dendrimer with a hexyl spacer crosses the cell membrane faster than the molecule with an ethyl chain. On the other hand, the localization patterns can also be controlled by the length of the spacer. FD-1 with the short spacer appeared to be localized everywhere in the cell, but highly concentrated in the nucleus. […] These translocation features of guanidinlyated dendritic scaffolds as carriers can be important for intracellular delivery of cargo molecules to specific subcellular compartments (e.g., cytosol or nucleus). […]

Molecule | IOP one day after application ([1]; single application (1 μl) on day 4 after microbead injection) | time after administration at which IOP returned to elevated levels ([1]; single topical application (1 μl)) | fluorescence of treated cells (control experiments) [2]
Brc1c(NC2=NCCN2)ccc2nccnc12 [topical brimonidine, 5-Bromo-N-(4,5-dihydro-1H-imidazol-2-yl)quinoxalin-6-amine] | normal levels | Six | 
fluorescein isothiocyanate [free FITC] |  |  | no
